The text below walks through data of ChEMBL document CHEMBL1136955, “Compelling P1 substituent affect on metalloprotease binding profile enables the design of a novel cyclohexyl core scaffold with excellent MMP selectivity and HER-2 sheddase inhibition” (Bioorg Med Chem Lett, 2009).

Some results are limits rather than exact numbers.

In general, IC50 refers to the concentration that gives 50% inhibition.

Assay [1] has as its target Matrix metalloproteinase-9 (Homo sapiens, UniProt P14780). As to the kind of experiment: Inhibition of human MMP9.
The target of assay [2] is T1, Disintegrin and metalloproteinase domain-containing protein 10 (Homo sapiens, UniProt O14672).
T1 sequence (O14672 whole entry): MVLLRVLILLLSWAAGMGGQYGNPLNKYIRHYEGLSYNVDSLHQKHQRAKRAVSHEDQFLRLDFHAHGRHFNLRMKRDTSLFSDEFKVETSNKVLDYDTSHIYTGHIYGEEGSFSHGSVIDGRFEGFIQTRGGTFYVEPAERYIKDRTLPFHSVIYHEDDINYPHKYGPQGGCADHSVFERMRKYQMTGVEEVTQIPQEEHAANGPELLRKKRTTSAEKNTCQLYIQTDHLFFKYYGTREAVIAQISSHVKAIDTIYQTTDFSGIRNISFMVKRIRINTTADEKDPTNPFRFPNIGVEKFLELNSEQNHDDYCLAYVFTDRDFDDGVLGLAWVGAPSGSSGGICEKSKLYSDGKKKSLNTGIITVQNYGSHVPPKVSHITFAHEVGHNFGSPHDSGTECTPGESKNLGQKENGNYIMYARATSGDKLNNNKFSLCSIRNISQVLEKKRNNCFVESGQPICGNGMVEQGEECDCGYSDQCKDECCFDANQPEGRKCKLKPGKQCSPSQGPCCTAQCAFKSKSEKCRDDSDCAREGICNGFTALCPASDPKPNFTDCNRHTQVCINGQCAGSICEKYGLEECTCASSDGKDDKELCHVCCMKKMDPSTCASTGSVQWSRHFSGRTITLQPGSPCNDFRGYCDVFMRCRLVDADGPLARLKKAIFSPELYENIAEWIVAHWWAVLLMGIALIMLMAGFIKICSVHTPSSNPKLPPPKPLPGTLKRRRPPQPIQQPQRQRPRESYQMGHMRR
As to the kind of experiment: Inhibition of human recombinant ADAM10.

For the next assay, the target named is Stromelysin-1 (Homo sapiens, UniProt P08254). Put plainly: Inhibition of human MMP3.
For another assay, the target named is T2, Interstitial collagenase (Homo sapiens, UniProt P03956).
T2 sequence (P03956 whole entry): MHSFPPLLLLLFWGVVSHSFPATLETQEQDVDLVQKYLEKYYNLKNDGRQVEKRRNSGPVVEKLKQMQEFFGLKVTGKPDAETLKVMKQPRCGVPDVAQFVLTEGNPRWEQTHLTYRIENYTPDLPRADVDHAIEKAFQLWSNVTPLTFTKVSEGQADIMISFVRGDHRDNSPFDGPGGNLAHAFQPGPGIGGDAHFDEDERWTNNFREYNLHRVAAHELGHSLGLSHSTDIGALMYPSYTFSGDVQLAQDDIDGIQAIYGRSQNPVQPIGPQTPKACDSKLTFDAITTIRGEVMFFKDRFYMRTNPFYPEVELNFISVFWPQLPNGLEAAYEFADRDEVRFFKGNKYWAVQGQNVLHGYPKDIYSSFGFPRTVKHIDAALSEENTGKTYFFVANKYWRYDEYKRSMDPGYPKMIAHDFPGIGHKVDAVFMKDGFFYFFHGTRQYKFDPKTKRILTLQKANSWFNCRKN
As to the kind of experiment: Inhibition of human MMP1.

The target of assay [3] is 72 kDa type IV collagenase (Homo sapiens, UniProt P08253). As to the kind of experiment: Inhibition of human MMP2.
For another assay, the species on record is Homo sapiens. Put plainly: Selectivity ratio of IC50 for human MMP2 to IC50 for human ADAM10.

Sequence of Stromelysin-1 (P08254 whole entry): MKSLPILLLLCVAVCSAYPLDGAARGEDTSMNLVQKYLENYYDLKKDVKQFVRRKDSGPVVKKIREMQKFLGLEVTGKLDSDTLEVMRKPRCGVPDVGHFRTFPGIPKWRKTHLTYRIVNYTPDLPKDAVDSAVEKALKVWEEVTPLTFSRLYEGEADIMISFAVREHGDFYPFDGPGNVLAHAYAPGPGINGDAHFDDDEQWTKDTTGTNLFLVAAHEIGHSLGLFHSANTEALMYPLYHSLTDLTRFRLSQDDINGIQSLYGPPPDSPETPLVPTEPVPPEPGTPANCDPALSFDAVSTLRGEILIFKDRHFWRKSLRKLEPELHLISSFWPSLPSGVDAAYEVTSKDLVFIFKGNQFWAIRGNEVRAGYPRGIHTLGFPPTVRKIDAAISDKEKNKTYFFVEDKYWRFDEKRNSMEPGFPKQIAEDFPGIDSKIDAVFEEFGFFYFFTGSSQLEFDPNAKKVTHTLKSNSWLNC
Sequence of 72 kDa type IV collagenase (P08253 whole entry): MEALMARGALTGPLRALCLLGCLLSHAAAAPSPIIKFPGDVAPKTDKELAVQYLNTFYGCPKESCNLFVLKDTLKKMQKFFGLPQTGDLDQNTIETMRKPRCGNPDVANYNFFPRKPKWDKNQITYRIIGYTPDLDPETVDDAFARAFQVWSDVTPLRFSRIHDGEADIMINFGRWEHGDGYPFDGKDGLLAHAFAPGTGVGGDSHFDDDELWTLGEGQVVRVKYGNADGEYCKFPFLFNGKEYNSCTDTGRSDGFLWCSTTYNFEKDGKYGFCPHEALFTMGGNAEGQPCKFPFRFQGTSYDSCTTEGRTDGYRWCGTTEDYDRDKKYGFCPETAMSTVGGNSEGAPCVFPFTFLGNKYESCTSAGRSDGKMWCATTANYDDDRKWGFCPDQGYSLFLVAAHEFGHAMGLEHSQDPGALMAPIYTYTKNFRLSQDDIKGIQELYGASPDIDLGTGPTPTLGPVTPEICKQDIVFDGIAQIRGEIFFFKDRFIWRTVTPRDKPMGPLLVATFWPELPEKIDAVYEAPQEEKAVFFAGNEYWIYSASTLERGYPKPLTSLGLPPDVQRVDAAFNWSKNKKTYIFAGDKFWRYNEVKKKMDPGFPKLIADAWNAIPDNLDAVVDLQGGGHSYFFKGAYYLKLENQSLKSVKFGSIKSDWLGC
Sequence of Matrix metalloproteinase-9 (P14780 whole entry, the tested form may be a part): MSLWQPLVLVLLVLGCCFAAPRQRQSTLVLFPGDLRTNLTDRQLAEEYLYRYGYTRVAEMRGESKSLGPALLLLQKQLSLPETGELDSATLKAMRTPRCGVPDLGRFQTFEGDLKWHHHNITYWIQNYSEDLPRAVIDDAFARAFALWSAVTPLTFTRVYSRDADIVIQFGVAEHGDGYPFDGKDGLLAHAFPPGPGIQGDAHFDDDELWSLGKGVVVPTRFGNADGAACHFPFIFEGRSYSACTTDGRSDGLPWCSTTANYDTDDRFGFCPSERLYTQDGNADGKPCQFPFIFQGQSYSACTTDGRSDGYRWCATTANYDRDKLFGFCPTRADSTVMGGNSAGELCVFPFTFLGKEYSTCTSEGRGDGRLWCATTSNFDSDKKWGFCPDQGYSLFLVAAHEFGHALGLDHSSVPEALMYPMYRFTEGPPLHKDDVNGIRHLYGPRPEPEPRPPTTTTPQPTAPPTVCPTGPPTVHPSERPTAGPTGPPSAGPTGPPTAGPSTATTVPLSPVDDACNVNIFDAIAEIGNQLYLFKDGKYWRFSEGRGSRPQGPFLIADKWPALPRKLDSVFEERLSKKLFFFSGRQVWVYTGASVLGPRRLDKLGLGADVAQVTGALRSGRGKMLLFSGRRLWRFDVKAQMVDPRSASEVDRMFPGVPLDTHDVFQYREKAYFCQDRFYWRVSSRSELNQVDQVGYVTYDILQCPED

Consider `CN1CCN(C(=O)CC2CC[C@H](C(=O)N3CCN(c4ccccc4)CC3)[C@@H](C(=O)NO)C2)CC1` (mixture of isomers), for which the half-maximal inhibitory concentration (IC50) in assay [1] was 2500 nM; in assay [2], 30 nM; against Stromelysin-1, more than 5000 nM; against Interstitial collagenase, more than 5000 nM; in assay [3] it was 68 nM.
As to `CC(C)c1cccc(C2CCN(C(=O)[C@H]3CC[C@H](CC(=O)N4CCCCC4)C[C@@H]3C(=O)NO)CC2)c1`, the 50% inhibitory concentration (IC50) in assay [1] was more than 5000 nM; in assay [2], 21 nM; against Stromelysin-1, more than 5000 nM; on Interstitial collagenase, more than 5000 nM; in assay [3], more than 5000 nM.
As for `CN1CC(CC(=O)N2CCCCC2)C[C@H](C(=O)NO)[C@H]1C(=O)N1CCN(c2ccccc2)CC1` (mixture of isomers), the IC50 in assay [2] is 77 nM; in assay [3] it was 81 nM.
As for `O=C(NO)[C@H]1CC2(CC[C@@H]1C(=O)N1CCN(c3ccccc3)CC1)CC2` (mixture of isomers), the concentration for half-maximal inhibition (IC50) is 577 nM in assay [1]; 196 nM in assay [2]; more than 5000 nM against Stromelysin-1; more than 5000 nM at Interstitial collagenase; 106 nM in assay [3]. Further, in the assay filed under Homo sapiens, the Ratio IC50 is 2.
Consider `O=C(NO)[C@H]1CCCC[C@@H]1C(=O)N1CCN(c2ccccc2)CC1`, for which the IC50 is 1540 nM in assay [2], more than 5000 nM against Interstitial collagenase and 180 nM in assay [3].
On to `O=C(NO)[C@H]1CC(CC(=O)N2CC[C@@H](O)C2)CC[C@@H]1C(=O)N1CCN(c2ccccc2)CC1` (mixture of isomers), for which the concentration for half-maximal inhibition (IC50) in assay [2] worked out at 111 nM; in assay [3], 156 nM.
Regarding `O=C(NO)[C@H]1CC(CC(=O)N2CCCC2)CC[C@@H]1C(=O)N1CCN(c2ccccc2)CC1` (mixture of isomers), the half-inhibitory concentration (IC50) in assay [1] is 1440 nM; in assay [2] it was 64 nM; at Stromelysin-1, more than 5000 nM; against Interstitial collagenase, more than 5000 nM; in assay [3] it was 271 nM.
As to `O=C(NO)[C@H]1CC(CC(=O)N2CCCC2)CN[C@@H]1C(=O)N1CCN(c2ccccc2)CC1` (mixture of isomers), the results for the 50% inhibitory concentration (IC50) in assay [2] and in assay [3] were 19 nM and 8 nM, respectively.
In turn, `O=C(NO)[C@H]1C[C@H](CC(=O)N2CCCCC2)CC[C@@H]1C(=O)N1CCN(c2ccccc2)CC1` yielded a concentration for half-maximal inhibition (IC50) in assay [3] of 1090 nM.
Regarding `NCCCCCNC(=O)CC1CN[C@H](C(=O)N2CCC(c3ccccc3)C2)[C@@H](C(=O)NO)C1` (mixture of isomers), the IC50 in assay [1] is more than 5000 nM; in assay [2], 161 nM; against Stromelysin-1, more than 5000 nM; on Interstitial collagenase, more than 5000 nM; in assay [3], 1660 nM.
Turning to `O=C(CC1CN[C@H](C(=O)N2CCC(c3ccccc3)C2)[C@@H](C(=O)NO)C1)NCCCCCNC(=O)OCc1ccccc1` (mixture of isomers), the IC50 in assay [1] is 1790 nM; in assay [2], 302 nM; against Stromelysin-1, 5000 nM; at Interstitial collagenase, more than 5000 nM; in assay [3] it was 1280 nM.
On to `O=C(NO)[C@H]1CC(CC(=O)N2CCOCC2)CC[C@@H]1C(=O)N1CCN(c2ccccc2)CC1` (some centres undefined), for which the IC50 in assay [2] was determined as 83 nM; in assay [3] it was 236 nM.
On to `O=C(NO)[C@H]1CC(CC(=O)N2CCCCC2)CC[C@@H]1C(=O)N1CCN(c2ccccc2)CC1` (mixture of isomers), for which the IC50 in assay [1] is 1880 nM; at Stromelysin-1, more than 5000 nM; against Interstitial collagenase it was more than 5000 nM; in assay [3], 321 nM.
As to `CC(C)c1cccc(C2CCN(C(=O)[C@H]3CC[C@@H](CC(=O)N4CCCCC4)C[C@@H]3C(=O)NO)CC2)c1`, the IC50 in assay [2] was 915 nM; in assay [3] it was more than 5000 nM.
In the case of `O=C(NO)[C@H]1C[C@@H](CC(=O)N2CCCCC2)CC[C@@H]1C(=O)N1CCN(c2ccccc2)CC1`, the IC50 in assay [1] was 683 nM; in assay [2], 15 nM; at Stromelysin-1 it was more than 5000 nM; against Interstitial collagenase, more than 5000 nM; in assay [3], 100 nM.
Turning to `O=C(NO)[C@H]1CC2(CC2)CN[C@@H]1C(=O)N1CCC(c2ccccc2)C1` (some centres undefined), the results for the 50% inhibitory concentration (IC50) (in assay [1]; against Stromelysin-1; in assay [3]) were more than 5000 nM, more than 5000 nM and 998 nM, respectively.
Consider `CN1CC(CC(=O)N2CCCC2)C[C@H](C(=O)NO)[C@H]1C(=O)N1CCN(c2ccccc2)CC1` (mixture of isomers), for which the IC50 in assay [2] was 167 nM; in assay [3], 92 nM.
